Data as given in patent US20230382915A1, “GCN2 AND PERK KINASE INHIBITORS AND METHODS OF USE THEREOF” (Deciphera Pharmaceuticals, LLC, priority 2021, published 2023).

Legend:
[1] = molecular target: Recombinant GCN2 (EIF2AK4) (Homo sapiens (Human), UniProt Q9P2K8); experiment: Recombinant GCN2 activation assay; format: biochemical; details: FIG. 9A
Description: Recombinant GCN2 (EIF2AK4) (Carna Biosciences, Japan) was dephosphorylated by incubating with 16,000 units of lambda phosphatase (New England Biolabs, Ipswich, MA) for 3 h at 30° C. in 1×phosphatase reaction buffer. To measure Compound 2-mediated GCN2 modulation, 12.5 nM dephosphorylated GCN2 diluted in Kinase buffer (Invitrogen, Carlsbad, CA) was incubated with Compound 2 titer for 30 min at RT. Following incubation, 130 nM substrate (GFP-eIF2α) (ThermoFisher Scientific, Waltham, MA) and 0.05 mM ATP was added to the mixture and incubated for 60 min at RT. Reaction was stopped by the addition of 10 mM EDTA and phosphorylated eiF2a substrate was detected using 2 nM LanthaScreen Tb-anti-peIF2α (pSer52) antibody (ThermoFisher Scientific, Waltham, MA) then incubated in the dark. After a 60 min incubation at room temperature, TR-FRET was monitored using an excitation wavelength of 340 nm and emission wavelengths of 490 nm and 520 nm.

[2] = test system: ATF4 levels in CCRF-CEM leukemia xenograft; experiment: CCRF-CEM xenograft PK/PD model; format: in vivo, mice; details: Mus musculus, po, in combination with ASNase, 2, 6, 10 h post dose, read-out: inhibition of ATF4 levels compared to vehicle control
Description: The CCRF-CEM xenograft model was performed in compliance with all the laws, regulations and guidelines of the National Institutes of Health (NIH) and with the approval of the Animal Care and Use Committee of Labcorp (Ann Arbor, MI), an AAALAC accredited facility. Food and water was provided ad libitum. […] Female Envigo C.B-17 SCID (6-7 weeks old) were inoculated subcutaneously just below the right high axilla with ten million cells in Dulbecco's Phosphate Buffered Saline, using a 27-gauge needle and syringe. When tumor burdens reached 200 mm 3 on average on day 22, mice were randomly assigned into groups such that the mean tumor burden for all groups was within 10% of the overall mean tumor burden for the study population. Groups were treated on days 23-24 as follows: on day 23 vehicle control (dosed orally and IP to mimic combination groups) (n=9); ASNase (Abcam, Cambridge, UK) dosed IP at 1000 U/kg/day (n=9). […] Protein concentrations were determined using BCA protein assay kit (Thermo Fisher Scientific, Waltham, MA). […] Samples were resolved using SDS-PAGE then analyzed using Western blot to quantify phospho-GCN2 (Thr899) (Abcam, Cambridge, UK), total GCN2, ATF4 and beta-Actin (Cell Signaling Technology, Danvers, MA). […] Data is analyzed using GraphPad Prism software (GraphPad, San Diego, CA) to calculate % inhibition.

[3] = test system: H358 spheroids; experiment: Spheroid Western blot assay, H358; format: cell-based
Description: NSCLC cell lines H358 (catalog #CRL-5807) and H2030 (catalog #CRL-5914), and fibrosarcoma cell line HT-1080 (catalog […]) were obtained from the American Type Culture Collect (ATTC, Manassas, VA). Cells were grown in RPMI-1640 medium supplemented with 10% heat-inactivated fetal bovine serum and 1% Penicillin/Streptomycin/L-Glutamine (Invitrogen, Carlsbad, CA) at 37° C., 5% CO2, and 95% humidity and maintained at 50-80% confluency until use. Cells were plated at 500,000 cells/well in 24-well Elplasia plates (Corning, Glendale, AZ) with complete growth media at 1 mL/well and incubated overnight at 37° C., 5% CO2, and 95% humidity to form spheroids. The next day, serial dilutions of test compounds were prepared in complete growth media and 500 μL existing media was removed from each well and replaced with fresh media containing compound titers. Spheroids were then incubated with test compounds for 4 hours or 24 hours under the same conditions. […] Western blots were performed to quantify phospho-GCN2 (R&D Systems, Minneapolis, MN), ATF4, CHOP, cleaved PARP, cleaved Caspase 3 and 7, and beta-Actin (Cell Signaling Technology, Danvers, MA). […]

Sequence of Recombinant GCN2 (EIF2AK4) (Q9P2K8 whole entry): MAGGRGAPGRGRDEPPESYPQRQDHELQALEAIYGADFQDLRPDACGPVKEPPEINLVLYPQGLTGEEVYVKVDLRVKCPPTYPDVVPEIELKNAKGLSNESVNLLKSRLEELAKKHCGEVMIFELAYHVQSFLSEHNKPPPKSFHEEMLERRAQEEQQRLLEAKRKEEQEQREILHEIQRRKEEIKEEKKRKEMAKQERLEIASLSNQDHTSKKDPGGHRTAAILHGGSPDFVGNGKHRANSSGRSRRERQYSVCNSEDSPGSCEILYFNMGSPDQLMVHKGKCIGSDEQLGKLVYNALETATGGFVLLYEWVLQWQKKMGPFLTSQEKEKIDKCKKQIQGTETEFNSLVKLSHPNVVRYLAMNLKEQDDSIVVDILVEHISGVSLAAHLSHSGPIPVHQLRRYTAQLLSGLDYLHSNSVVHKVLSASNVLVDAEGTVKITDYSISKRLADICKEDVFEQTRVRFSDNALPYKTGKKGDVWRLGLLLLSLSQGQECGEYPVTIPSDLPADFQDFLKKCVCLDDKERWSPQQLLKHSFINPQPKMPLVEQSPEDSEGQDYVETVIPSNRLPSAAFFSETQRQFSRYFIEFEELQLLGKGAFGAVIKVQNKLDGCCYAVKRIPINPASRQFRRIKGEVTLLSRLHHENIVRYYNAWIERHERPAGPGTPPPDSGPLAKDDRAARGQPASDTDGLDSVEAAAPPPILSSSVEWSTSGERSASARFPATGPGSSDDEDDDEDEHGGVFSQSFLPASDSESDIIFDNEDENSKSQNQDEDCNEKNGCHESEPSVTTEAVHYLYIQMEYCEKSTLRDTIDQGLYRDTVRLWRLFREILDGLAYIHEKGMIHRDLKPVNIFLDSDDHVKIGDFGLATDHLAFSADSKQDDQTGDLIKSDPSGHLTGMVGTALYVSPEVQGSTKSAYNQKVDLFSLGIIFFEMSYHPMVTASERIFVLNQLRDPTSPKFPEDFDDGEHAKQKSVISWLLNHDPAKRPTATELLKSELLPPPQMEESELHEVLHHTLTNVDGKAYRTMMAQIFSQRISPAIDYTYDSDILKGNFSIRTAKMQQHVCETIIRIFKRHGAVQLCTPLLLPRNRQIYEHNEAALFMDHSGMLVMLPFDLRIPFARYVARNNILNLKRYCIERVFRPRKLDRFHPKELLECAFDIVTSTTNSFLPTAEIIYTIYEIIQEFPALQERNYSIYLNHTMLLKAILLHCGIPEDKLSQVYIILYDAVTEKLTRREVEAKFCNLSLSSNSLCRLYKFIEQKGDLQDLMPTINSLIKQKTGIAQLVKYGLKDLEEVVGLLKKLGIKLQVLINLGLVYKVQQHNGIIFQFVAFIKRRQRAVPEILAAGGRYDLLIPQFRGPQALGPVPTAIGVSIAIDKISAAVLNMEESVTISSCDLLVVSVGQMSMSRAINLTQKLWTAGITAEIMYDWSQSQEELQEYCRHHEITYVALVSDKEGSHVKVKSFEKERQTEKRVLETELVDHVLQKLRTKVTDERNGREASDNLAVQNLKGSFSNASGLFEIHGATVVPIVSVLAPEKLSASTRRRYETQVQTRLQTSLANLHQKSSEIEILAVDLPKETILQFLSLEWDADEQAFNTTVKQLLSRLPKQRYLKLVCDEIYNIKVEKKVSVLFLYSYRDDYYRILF

Cn1cc(-c2cccc(NS(=O)(=O)c3cc(Cl)cc(CO)c3Cl)c2F)c2c(N)ncnc21 [Example 2, N-(3-(4-amino-7-methyl-7H-pyrrolo[2,3-d]pyrimidin-5-yl)-2-fluorophenyl)-2,5-dichloro-3-(hydroxymethyl)benzenesulfonamide]
concentrations at which GCN2 enzyme is activated [1]: 0.05 to 3 nM
concentrations at which recombinant GCN2 activity is inhibited [1]: above 10 nM
activation of GCN2 enzyme, % of control ([1]; at 0.05-3 nM): up to 250 % of control
inhibition at 25 mg/kg ([2]; 25 mg/kg orally): 57 to 93%
inhibition at 50 mg/kg ([2]; 50 mg/kg orally): 87 to 91%
upregulation of ATF4 (Western blot quantification) [3]: ≤ 12 fold
